Data as given in patent publication US20250325499A1, “IMMUNO-ABLATION TREATMENT FOR SOLID TUMORS” (Northwestern University, priority 2022, published 2025).

Columns and labels:
N1S1 cells [1] = test: Cellular uptake of curcumin (confocal images, flow cytometry)
Experimental: Briefly, the N1S1 cells (1×10^5/mL) were cultured in a confocal dish (MatTek, 35 mm dish with 14 mm glass bottom). The cellular nucleus was stained with DAPI. Cell membranes were stained with Dil red (D282) following the protocol from ThermoFisher. […] The cells were then fixed by 4% paraformaldehyde and visualized with a confocal microscope (Nikon AIRS).
(§4) N1S1 cells were seeded onto the six-well plate (2×10^5/well). […] After washing the cells with PBS, they were fixed with 4% formalin at room temperature for 15 minutes. The results were examined by flow cytometry.

N1S1 cells [2] = test: Cell viability assay (CCK-8); assay type: cell-based
Experimental: N1S1 cells (1×10^4/mL) were seeded onto 96-well plates. […] Then the cells were washed with PBS and replenished with fresh media. After 24 h or 48 hr incubation, the cells viability was measured with CCK-8 assay.

GPX-4 = system: GPX-4
Experimental: (§1) N1S1 cells were seeded in the 8 cm culture dishes and cultured at 5% CO2, 37° C. overnight. The cells were treated with various groups for […]: ethanol (25, 20, 15, 10, and 5%) for 4, 12, and 24 h, and 15% ethanol+Cur1, 10% ethanol+Cur1, 15% ethanol+Cur2, 10% ethanol+Cur2, 15% ethanol+Cur3, and 10% ethanol+Cur3 for 24 h. […] No treatment of N1S1 was used as control. The cell lysates were collected and analyzed by Western blotting according to the manufacturer's instructions. Antibodies were used listed as below: GPX4 Rabbit anti-Human, Mouse, Rat, Polyclonal, Invitrogen™, catalog number: PIPA579321, dilution 0.1-0.5 μg/mL; p-STAT3 Rabbit mAb, cell signaling, catalog number: 9145, dilution 1:2000; p-p65 Rabbit mAb, cell signaling, catalog number: 3033, dilution 1:1000; PD-L1 Polyclonal Antibody, Invitrogen™, catalog number: PA5-20343, dilution 0.5-2 μg/mL; β-Actin (8H10D10) Mouse mAb (HRP Conjugate), cell signaling, catalog number: 12262, dilution 1:1000.
Western blot assay was then used to identify specific molecules associated with cancer cell response to the ethanol treatments. […] However, relatively low ethanol concentrations (10, 5, and 1%) increased the GPX-4 level at 12 h post-treatment compared to 4 h post-treatment, indicating a defensive response to the oxidative stress caused by ethanol. […] This is in agreement with the results of the cell viability and Annexin-V/PI assays (FIG. 1).

p-STAT3 = test: Western blot of p-STAT3 in N1S1 hepatoma cells; assay type: cell-based; details: ethanol 10, 5 and 1%
Experimental: as §1
(§2) Western blot assay was then used to identify specific molecules associated with cancer cell response to the ethanol treatments. […] However, relatively low ethanol concentrations (10, 5, and 1%) increased the GPX-4 level at 12 h post-treatment compared to 4 h post-treatment, indicating a defensive response to the oxidative stress caused by ethanol. […]

p-p65 = test: Western blot of p-p65 in N1S1 hepatoma cells; assay type: cell-based; details: ethanol 10, 5 and 1%
Experimental: as §1, §2

PD-L1 = test: Western blot / flow cytometry of PD-L1 in N1S1 hepatoma cells; assay type: cell-based; details: ethanol 10, 5 and 1%
Experimental: as §1, §2

[3] = system: N1S1 HCC tumors in rat liver; test: In vivo abscopal effect of ethanol-curcumin treated N1S1 cells, tumor volume by MRI; details: left lobe inoculated with treated N1S1 cells (10% ethanol or 10% ethanol plus Cur2 0.5% w/v) mixed with non-treated cells, MRI 8-day post-inoculation
Description: (§3) The rats in the control group were only inoculated in the right lobe of the liver with 5 million non-treated N1S1 cells. The right-side tumors (arrow in FIG. 5A) were established for testing abscopal effect. These tumors were collected for an immune status assay. The tumor in the control group was used as the baseline.

[4] = system: N1S1 HCC tumors in rat liver; test: In vivo immune status of right-side tumors by flow cytometry; details: 8 days post treatment
Description: To test in vivo tumor neutrophil cell populations, rats were sacrificed, and tumors were harvested at 8 days post treatment and examined by flow cytometry after immunofluorescence staining with anti-CD45-BV605, anti-Granulocytes-PE, and anti-CD11b/c-PerCP/eF710. To determine the intra-tumoral infiltration of CD8+ (CD3+CD4-CD8+), lymphocytes were stained with anti-CD45-BV605, anti-CD3-FITC, anti-CD11b/c-PerCP/eF710, anti-CD4-APC/Cy7, anti-CD8-V450, and anti-IFN-gamma-AF647. To determine the intra-tumoral infiltration of CD4+ (Treg), lymphocytes were stained with anti-CD45-BV605, anti-CD3-FITC, anti-CD11b/c-PerCP/eF710, anti-CD4-APC/Cy7, anti-CD8-V450, anti-CD25-PE, and anti-Foxp3-APC. All antibodies were diluted with the ratio of 1:100 and signal color beads (OneComp eBeads™ Compensation Beads) and unstained bead were used for compensation.
as §3

N1S1 cells [5] = system: N1S1 cells
Experimental: as §4

| cellular uptake of curcumin (green fluorescence signal) (N1S1 cells [1]; higher concentration of ethanol in ethanol-curcumin solution) | time curcumin maintained in N1S1 hepatoma cells (N1S1 cells [1]; uptake amplified by the ethanol solution) | SMILES | cell-killing effect on N1S1 hepatoma cells (CCK-8 cell viability) (N1S1 cells [2]; ethanol 15% to 1%, 5-min and 10-min coincubation) | growth inhibition of N1S1 hepatoma cells (CCK-8 cell viability) (N1S1 cells [2]; ethanol 25% and 20%, 5-min and 10-min coincubation, 24 h and 48 h post-treatment) | liver cancer cell N1S1 growth (N1S1 cells [2]; ethanol 25% to 5%, 10 min coincubation) | cell viability at 48 h post-treatment (N1S1 cells [2]; lower ethanol concentrations, 5-min and 10-min coincubation, 48 h vs 24 h) | GPX-4 level at 12 h compared to 4 h post-treatment (GPX-4; ethanol 10, 5 and 1%) | expression of GPX-4 at 24 h post-treatment (GPX-4; ethanol 10, 5 and 1%, 24 h) | GPX-4 level (GPX-4; ethanol 25, 20 and 15%, 4 h, 12 h and 24 h) | p-STAT3 activation (p-STAT3) | p-p65 activation (p-p65) | PD-L1 expression (PD-L1) | average tumor volume of right-side HCC tumors [3] | IL-17 T cells in right-side tumor, difference among groups [4] | neutrophil population in right-side tumor compared to control [4] | population of Tregs in right-side tumor compared to control group [4] | early apoptosis and late apoptosis populations (Annexin-V/PI) (N1S1 cells [5]; 10-min coincubation, various ethanol concentrations, found even at 0 h) | live cell populations at 48 h (N1S1 cells [5]; ethanol 15%, 10%, 5%, 1%, 48 h) | late apoptosis population at 48 h compared to 0 h and 24 h (N1S1 cells [5]; ethanol 25% and 20%, 10-min coincubation) | live cell populations (Annexin-V negative and PI negative) (N1S1 cells [5]; ethanol 25% and 20%, all time points (0, 24, 48 h)) |
| --- | --- | --- | --- | --- | --- | --- | --- | --- | --- | --- | --- | --- | --- | --- | --- | --- | --- | --- | --- | --- |
| higher cellular uptake | at least 48 h | COc1cc(/C=C/C(=O)CC(=O)/C=C/c2ccc(O)c(OC)c2)ccc1O [curcumin, (1E,6E)-1,7-bis(4-hydroxy-3-methoxyphenyl)hepta-1,6-diene-3,5-dione] |  |  |  |  |  |  |  |  |  |  |  |  |  |  |  |  |  |  |
|  |  | CCO [ethanol] | modest cell-killing effect | efficient growth inhibition | inhibits | recovery of cell viability | increased | reduced to normal levels | consistently low | consistent activation | consistent activation | upregulation | about 130 mm^3 | no significant difference | no significant difference | decreased population | Dosage-dependent increase | higher live cell populations | decreased late apoptosis population | remained low |
